# Reference: US20050119344A1, “Medium for radical treatment of tumors, inflammatory processes, fungal infections and other affections of the tissues, diagnostic and prophylactic and method of its implementation” (priority 2001, published 2005)
# Tests used:
# [1] = system: pathologically altered tissue; conditions: very weak solutions, in the range of 10%
# From the text: By broader studies can be composed a table for the painfulness of the reaction by the different groups of tumors and other types of tissue alteration, depending on the solution concentration, the time of influence, for example by rub in and the deepness of the alteration.
# The method has been applied for diagnostic of breast cancer.
# [2] = system: inflammatory processes, mushroom formations, and other pathological alterations of the tissues
# [3] = system: benign human skin tumors; conditions: through rub in
# From the text: (§1) The treatment is provided by rub in the medium with a tampon impregnated with it, directly in the tumor (by the skin ones), or in the accessible surface of the healthy tissue situated near by it. The rub in takes place repeatedly, with waiting for the absorption of the solution, until the tumor is saturated with formic acid in such a degree, that the blood in its blood-vessels coagulates and so that the tumor will be necrotized. […] By the benign tumor the treatment shall include mechanical irritation of its tissue too, with the purpose to stimulate the blood-circulation in it, by which the blood-vessels will be filled out and their surface will be enlarged on the account of the thickness of their walls. Such a treatment can be utilized, if necessary, by the malignant tumors too.
# [4] = system: malign formation in the milk gland
# From the text: as §1
# In the concrete case the treatment is applied on the spouse and respectively parent of the inventors. The women is […], with two side fibrose mastopatia. On 19 Nov. 2001 by an echographic examination has been discovered malign formation in the left breast, sector 12h, with the above mentioned dimensions and deepness, (FIG. 1 and FIG. 2). The diagnosis was confirmed through punctual biopsy. The treatment by the above-mentioned method began on 23 Nov. 2001 in the evening. […] The procedures continued three times daily in the following days.
structure (smiles),measurement,setting,value
"O=CO [formic acid, formic (methane) acid (HCOOH)]",reaction when hitting places with pathologically altered tissue,[1],give pain reaction
same,"action in inflammatory processes, mushroom formations and other tissue alterations","[2]; rub in, pulverizing, inhalations or other supply",acts very effectively and rapidly
same,outcome in tooth grenolom,[2]; three cases,the extraction of the teeth was prevented
same,elimination of benign human skin tumors,[3],repeatedly implemented for the elimination
same,state of the tumor tissue,"[4]; concluded from echography, biopsy and lack of pain by rub in",necrotized
same,echographic size of the flack,[4]; echography 11 Dec. 2001 (FIG. 5),the flack is diminished
same,outcome of treatment of malign formation in the milk gland,"[4]; only through rub in, formation 5.7 to 7.4 mm, about 8 mm deep",successfully implemented
same,"second punction biopsy, cancer cells","[4]; person, rub in three times daily from 23 Nov. 2001, biopsy 01 Dec. 2001",have not been observed cancer cells
